Data set [1] relates to HRV type 1A. The data set can be described thus: Inhibition of viral cytopathic effect (CPE), visual scoring or neutral red, HRV type 1A in MRC-5 cells. In kind it is cell-based, human rhinovirus. Conditions: for Activity on Rhinovirus Type 1A EC50: HRV type 1A in MRC-5 cells, CPE inhibition; for Activity on Rhinovirus Type 1A SI: selectivity index = CC50 or MTC divided by EC50, HRV type 1A, MRC-5 cells. On the technique in general: Cytopathic effects are the visible damage that an infection or toxin causes in cultured cells.

Data set [2] relates to HRV type 2. Put plainly: Inhibition of viral cytopathic effect (CPE), visual scoring or neutral red, HRV type 2 in KB cells. In kind it is cell-based, human rhinovirus. Conditions: for Activity on Rhinovirus Type 2 EC50: HRV type 2 in KB cells, CPE inhibition; for Activity on Rhinovirus Type 2 SI: selectivity index = CC50 or MTC divided by EC50, HRV type 2, KB cells.
Data set [3] deals with human embryo lung (MRC-5) cells. Put plainly: Cytotoxicity (CC50 or MTC) in uninfected MRC-5 cells. The note with it: unit not given.
For data set [4], the system named is Rhinovirus Type 14. The data set is classed as cell-based, human rhinovirus. Conditions: HRV-14.

Bounds are passed on as bounds.

Take `CON=C(C)c1ccc(OCCC2CCN(c3ccc(C)nn3)CC2)cc1` [Compound 9]: in data set [1], the “Activity on Rhinovirus Type 1A EC50” value is below 0.0032 µg/mL and the “Activity on Rhinovirus Type 1A SI” value is on record as above 312. In data set [2], the “Activity on Rhinovirus Type 2 EC50” value is 0.08 µg/mL and the “Activity on Rhinovirus Type 2 SI” value is given as above 13. Further, in data set [3], the “Activity on Rhinovirus Type 1A MTC” value is above 1.
For `CCC(=NOC)c1ccc(OCCC2CCN(c3ccc(Cl)nn3)CC2)cc1` [Compound 10], in data set [1], the “Activity on Rhinovirus Type 1A EC50” value is 0.0142 µg/mL and the “Activity on Rhinovirus Type 1A SI” value is recorded as above 70.54. Also, in data set [2], the “Activity on Rhinovirus Type 2 EC50” value came out at 0.4 µg/mL and the “Activity on Rhinovirus Type 2 SI” value is above 3. Further, in data set [3], the “Activity on Rhinovirus Type 1A MTC” value is given as above 1.
Taken in the same sequence, the figures for `CC(C)ON=Cc1ccc(OCCC2CCN(c3ccc(Cl)nn3)CC2)cc1` [Compound 12] were 0.00355 µg/mL, above 273.7, 0.02 µg/mL, 50 and above 1.
On the same counts, the results for `N#CCON=Cc1ccc(OCCC2CCN(c3ccc(Cl)nn3)CC2)cc1` [Compound 14] are below 0.0032 µg/mL, above 312, 0.046 µg/mL, 13 and above 1.
`Clc1ccc(N2CCC(CCOc3ccc(C=NOCc4ccccc4)cc3)CC2)nn1` [Compound 15]: in data set [1], the “Activity on Rhinovirus Type 1A EC50” value is above 1.0 µg/mL. For the same molecule, in data set [2], the “Activity on Rhinovirus Type 2 EC50” value worked out at 0.9 µg/mL and the “Activity on Rhinovirus Type 2 SI” value is recorded as below 1. Moreover, the “Activity on Rhinovirus Type 1A MTC” value in data set [3] was above 1.0.
For `CON=Cc1cccc(OCCC2CCN(c3ccc(Cl)nn3)CC2)c1` [Compound 16], in data set [1], the “Activity on Rhinovirus Type 1A EC50” value was below 0.0032 µg/mL and the “Activity on Rhinovirus Type 1A SI” value was above 312. Further, in data set [2], the “Activity on Rhinovirus Type 2 EC50” value was below 0.001 µg/mL and the “Activity on Rhinovirus Type 2 SI” value is given as above 1000. In data set [3], the “Activity on Rhinovirus Type 1A MTC” value was above 1.
For the molecule `CON=Cc1ccc(OC)c(OCCC2CCN(c3ccc(Cl)nn3)CC2)c1` [Compound 17], in data set [1], the “Activity on Rhinovirus Type 1A EC50” value is 0.00612 µg/mL and the “Activity on Rhinovirus Type 1A SI” value was above 163.2. For the same molecule, the “Activity on Rhinovirus Type 2 EC50” value in data set [2] is above 1 µg/mL. Also, the “Activity on Rhinovirus Type 1A MTC” value in data set [3] is reported as above 1.
For the molecule `CON=C(C)c1ccc(OCCC2CCN(c3ccc(Cl)nn3)CC2)c(OC)c1` [Compound 19], in data set [1], the “Activity on Rhinovirus Type 1A EC50” value is below 0.0032 µg/mL and the “Activity on Rhinovirus Type 1A SI” value was above 312. In addition, in data set [2], the “Activity on Rhinovirus Type 2 EC50” value turned out to be 0.019 µg/mL and the “Activity on Rhinovirus Type 2 SI” value was above 53. Also, the “Activity on Rhinovirus Type 1A MTC” value in data set [3] is reported as above 1.
On the same counts, the results for `CCOCCOCCON=Cc1ccc(OCCC2CCN(c3ccc(Cl)nn3)CC2)cc1` [Compound 20] are 3.28 µg/mL, above 15.24, 3 µg/mL, 1 and above 50.00.
For the molecule `CCON=Cc1ccc(OCCC2CCN(c3ccc(OCC(F)(F)F)nn3)CC2)cc1` [Compound 21], the “Activity on Rhinovirus Type 1A EC50” value in data set [1] is above 1 µg/mL. In addition, in data set [2], the “Activity on Rhinovirus Type 2 EC50” value worked out at 0.3 µg/mL and the “Activity on Rhinovirus Type 2 SI” value was above 3. In addition, the “Activity on Rhinovirus Type 1A MTC” value in data set [3] is recorded as above 1.
Take `CON=Cc1cc(C)c(OCCCc2cc(C)no2)c(C)c1` [Compound 22]: in data set [1], the “Activity on Rhinovirus Type 1A EC50” value is below 0.16 µg/mL and the “Activity on Rhinovirus Type 1A SI” value is listed as above 320. In data set [2], the “Activity on Rhinovirus Type 2 EC50” value is below 0.05 µg/mL and the “Activity on Rhinovirus Type 2 SI” value was above 400. Also, the “Activity on Rhinovirus Type 1A MTC” value in data set [3] turned out to be 36.0.
Turning to `C=CCON=Cc1cc(C)c(OCCCc2cc(C)no2)c(C)c1` [Compound 23], in data set [1], the “Activity on Rhinovirus Type 1A EC50” value is below 0.16 µg/mL and the “Activity on Rhinovirus Type 1A SI” value was above 320. Moreover, in data set [2], the “Activity on Rhinovirus Type 2 EC50” value was below 0.05 µg/mL and the “Activity on Rhinovirus Type 2 SI” value is above 340. Moreover, the “Activity on Rhinovirus Type 1A MTC” value in data set [3] is on record as above 50.
On the same counts, the results for `Cc1cc(CCCOc2c(C)cc(C=NOCc3ccccc3)cc2C)on1` [Compound 25] are 0.36 µg/mL, above 139.4, 0.5 µg/mL, 34 and above 50.
`CCON=Cc1ccc(OCCC2CCN(c3ccc(OC)nn3)CC2)cc1` [Compound 26]: in data set [1], the “Activity on Rhinovirus Type 1A EC50” value worked out at 0.077 µg/mL and the “Activity on Rhinovirus Type 1A SI” value is above 13.0. In data set [2], the “Activity on Rhinovirus Type 2 EC50” value turned out to be 0.16 µg/mL and the “Activity on Rhinovirus Type 2 SI” value was above 6. Also, the “Activity on Rhinovirus Type 1A MTC” value in data set [3] is above 1.
On the same counts, the results for `CCON=Cc1ccc(OCCN2CCN(c3ccc(Cl)nn3)CC2)cc1` [Compound 27] are 0.017 µg/mL, above 59.6, 0.1 µg/mL, above 10 and above 1.
Taken in the same sequence, the figures for `CCON=Cc1ccc(OCC2CCCN(c3ccc(Cl)nn3)C2)cc1` (stereo not drawn) [Compound 28] were 0.180 µg/mL, above 5.5, 0.06 µg/mL, above 17 and above 1.
In the case of `CCON=Cc1ccc(OCC2CCN(c3ccc(Cl)nn3)CC2)cc1` [Compound 31], in data set [1], the “Activity on Rhinovirus Type 1A EC50” value was determined as 0.017 µg/mL and the “Activity on Rhinovirus Type 1A SI” value is recorded as above 59.6. In data set [2], the “Activity on Rhinovirus Type 2 EC50” value came out at 0.003 µg/mL and the “Activity on Rhinovirus Type 2 SI” value is reported as above 333. Moreover, the “Activity on Rhinovirus Type 1A MTC” value in data set [3] is on record as above 1.
Taken in the same sequence, the figures for `CCON=Cc1ccc(OCCCC2CCN(c3ccc(Cl)nn3)CC2)cc1` [Compound 32] were 0.222 µg/mL, above 4.5, 0.014 µg/mL, above 70 and above 1.
Turning to `CCON=C(CC)c1ccc(OCCC2CCN(c3ccc(Cl)nn3)CC2)cc1` [Compound 34], in data set [1], the “Activity on Rhinovirus Type 1A EC50” value amounted to 0.627 µg/mL and the “Activity on Rhinovirus Type 1A SI” value is recorded as above 1.59. Besides, in data set [2], the “Activity on Rhinovirus Type 2 EC50” value is 0.7 µg/mL and the “Activity on Rhinovirus Type 2 SI” value is on record as above 1. The “Activity on Rhinovirus Type 1A MTC” value in data set [3] is given as above 1.
With `CCON=Cc1ccc(OCCC2CCN(c3ccc(Cl)nn3)CC2)c([N+](=O)[O-])c1` [Compound 36], in data set [1], the “Activity on Rhinovirus Type 1A EC50” value was determined as 0.009 µg/mL and the “Activity on Rhinovirus Type 1A SI” value stood at 99.4. Besides, in data set [2], the “Activity on Rhinovirus Type 2 EC50” value is 0.03 µg/mL and the “Activity on Rhinovirus Type 2 SI” value was above 33. Also, the “Activity on Rhinovirus Type 1A MTC” value in data set [3] amounted to 0.89.
For `CCON=Cc1ccc(OCCC2CCN(c3ccc(Cl)nn3)CC2)cc1O` [Compound 37], in data set [1], the “Activity on Rhinovirus Type 1A EC50” value was 0.010 µg/mL and the “Activity on Rhinovirus Type 1A SI” value was above 96.0. For the same molecule, in data set [2], the “Activity on Rhinovirus Type 2 EC50” value was found to be 0.048 µg/mL and the “Activity on Rhinovirus Type 2 SI” value was above 21. In data set [3], the “Activity on Rhinovirus Type 1A MTC” value is above 1.
As for `C=CCON=Cc1cc(O)cc(OCCC2CCN(c3ccc(Cl)nn3)CC2)c1` [Compound 40], in data set [1], the “Activity on Rhinovirus Type 1A EC50” value amounted to 0.583 µg/mL and the “Activity on Rhinovirus Type 1A SI” value is above 1.72. Moreover, in data set [2], the “Activity on Rhinovirus Type 2 EC50” value came to 0.4 µg/mL and the “Activity on Rhinovirus Type 2 SI” value is recorded as above 3. In addition, the “Activity on Rhinovirus Type 1A MTC” value in data set [3] is reported as above 1.
On the same counts, the results for `CCON=Cc1cccc(OCCC2CCN(c3ccc(Cl)nn3)CC2)c1` [Compound 41] are 0.016 µg/mL, above 63.5, below 0.001 µg/mL, above 1000 and above 1.
Taken in the same sequence, the figures for `C=CCON=Cc1ccc(OCCC2CCN(c3ccc(Cl)nn3)CC2)c(C)c1` [Compound 43] were 0.006 µg/mL, above 170, 0.01 µg/mL, above 100 and above 1.
Consider `CCON=Cc1cc(C)c(OCCC2CCN(c3ccc(Cl)nn3)CC2)c(C)c1` [Compound 45], for which, in data set [1], the “Activity on Rhinovirus Type 1A EC50” value came to 0.029 µg/mL and the “Activity on Rhinovirus Type 1A SI” value is listed as above 34.0. In data set [2], the “Activity on Rhinovirus Type 2 EC50” value turned out to be 0.03 µg/mL and the “Activity on Rhinovirus Type 2 SI” value was above 32. For the same molecule, the “Activity on Rhinovirus Type 1A MTC” value in data set [3] is given as above 1.
Take `CCON=Cc1ccc(OCCC2CCN(c3ccc(Cl)nn3)CC2)cc1` [Compound 57]: in data set [1], the “Activity on Rhinovirus Type 1A EC50” value turned out to be 0.001 µg/mL and the “Activity on Rhinovirus Type 1A SI” value was above 56.3. Also, in data set [2], the “Activity on Rhinovirus Type 2 EC50” value is 0.00025 µg/mL and the “Activity on Rhinovirus Type 2 SI” value is given as above 400. Also, the “Activity on Rhinovirus Type 1A MTC” value in data set [3] is listed as above 0.1.
Consider `CCON=Cc1ccc(OCCCc2cc(C)no2)cc1` [Compound 108], for which, in data set [1], the “Activity on Rhinovirus Type 1A EC50” value was above 1 µg/mL. In data set [2], the “Activity on Rhinovirus Type 2 EC50” value was 0.6 µg/mL and the “Activity on Rhinovirus Type 2 SI” value was above 1. In data set [3], the “Activity on Rhinovirus Type 1A MTC” value is above 1.
`CCON=Cc1ccc(OCCC2CCN(c3nnc(C(F)(F)F)s3)CC2)cc1` [Compound 154]: the “Activity on Rhinovirus Type 14 EC50” value in data set [4] was found to be 0.0514 µg/mL.

For the origin of these results see patent US7078403B1, “Antiviral agents” (Biota Scientific Management Pty Ltd., priority 1999, dated 2006).
